Measurements as given in patent publication US20240293558A1, “KRAS INHIBITOR CONJUGATES” (Erasca, Inc., priority 2021, published 2024).

Assays:
KRAS (WT) = target: T1, KRAS (WT) (Homo sapiens, UniProt P01116); experiment: In-vitro RAS-RAF binding assay (RRB), HTRF/FRET; assay type: biochemical; conditions: Table 2, average of multiple runs of each compound; read-out: Inhibition of RAS-RAF Binding (in-vitro) KRAS (WT) IC50
T1 construct: Biotinylated KRAS protein amino acids 1-169 (produced at Erasca); made in house
T1 sequence (P01116 1-169 isoform P01116-2): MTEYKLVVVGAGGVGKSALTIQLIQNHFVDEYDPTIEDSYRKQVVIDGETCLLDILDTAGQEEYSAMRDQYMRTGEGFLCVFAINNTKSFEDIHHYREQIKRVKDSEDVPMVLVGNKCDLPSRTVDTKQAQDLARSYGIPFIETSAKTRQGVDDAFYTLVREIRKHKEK
Outline: (§1)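 Biotinylated KRAS 1-169 (streptavidin-terbium donor, 30 nM) and GST-cRAF RBD (anti-GST d2 acceptor, 30 nM) in HEPES pH 7.5, NaCl, MgCl2, DTT buffer. After compound incubation, SOS1 catalytic domain plus GTPgS drive 60 min nucleotide exchange. HTRF FRET read at equilibrium, in duplicate.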

[1] = target: T2, KRas G12D fused to HiBiT peptide (Homo sapiens, UniProt P01116, G12D); experiment: ASPC-1 HiBit assay to determine G12D degradation; assay type: cell-based; conditions: AsPC-1 HiBiT cells, 24-hour incubation; read-out: ASPC-1 HiBit DC50 (C)
T2 construct: endogenous in cells; host or cells: AsPC-1 HiBiT knock-in single clone (Cas9 RNP + ssODN)
T2 sequence (P01116 1-188 isoform P01116-2 G12D): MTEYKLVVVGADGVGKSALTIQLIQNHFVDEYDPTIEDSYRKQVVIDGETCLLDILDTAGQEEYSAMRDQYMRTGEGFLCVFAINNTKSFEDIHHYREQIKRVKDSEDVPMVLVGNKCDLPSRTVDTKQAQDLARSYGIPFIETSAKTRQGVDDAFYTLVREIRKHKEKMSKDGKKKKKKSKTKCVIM
Procedure: Compounds presented herein induce degradation of the KRas G12D (KRasG12D) upon treatment of engineered cancer cell line.
The degradation of the KRasG12D in cellular environment was measured using engineered homozygous KRasG12D AsPC-1 cell line in which KRas G12D was fused to luminescent HiBiT peptide at the N-terminal. The small (1.3 kDa) HiBiT peptide complements with high affinity to a larger (18 kDa) subunit evolved from NanoLuc (termed LgBiT). The resulting complex (i.e., reconstituted luciferase enzyme) generates bright luminescence that translates to high sensitivity (1 amol), broad dynamic range (four orders of magnitude), and rapid kinetics for real time quantitation.
To generate HiBit KRasG12D knock-in cell line, sgRNA (SEQ. ID NO: 1) and ssODN (SEQ. ID NO: 2) were designed and synthesized at GenScript.
RNP complex was generated by mixing of 100 pmol of Cas9 protein to PCR tubes containing 300 pmol sgRNA incubating the resultant complex at room temperature for 20 min. […] ssODN was added to RNP complex slowly and RNP-ssODN complex was incubated at room temperature for 10 min. RNP-ssODN complex was mixed with […] of AsPC-1 cells (1×10^6 cells total) and electroporated using Nucleofactor (Program CM-150). Cells were then incubated at ambient temperature for 5 min and transferred to a six-well plate containing 2 ml growth medium.
To select pools with the highest luminescence signal, 10^4 cells of parental AsPC-1 and transfected pools were plated in solid white 384-well tissue culture plates. 24 hours after seeding, HiBiT was detected using the Nano-Glo HiBiT Lytic Detection System (Promega) following manufacturer's instructions. Briefly, […] of Nano-Glo HiBiT Lytic Detection Reagent was added directly to the cells and mixed by inversion before recording luminescence on an Envision (Perkin-Elmer) with 0.5 s integration time.
Single clones were isolated from stable pool by limited dilution method and presence of HiBiT knock-in was verified by TA cloning and subsequent sequencing. Additionally, western blotting analysis was conducted to confirm selection of single clones with high luminescence signal.
For DC50S measurements, AsPC-1 HiBiT single clone cells were grown in RPMI 1640 medium (Invitrogen 22400-089) supplemented with 10% fetal bovine serum. Cells were seeded in 384-well tissue culture plates at a density of 7,000 cells/well and allowed to attach for 24 hours.
Test compounds were distributed directly into assay plate with the adjustment for DMSO concentration using Tecan HP D300e. For most of the experiments, the final concentration of compounds starts from 10 μM, 3-fold dilution dose response and 10 doses. […] DMSO final concentration is 1%. Each concentration of exemplary compound was tested as singleton. The negative control wells were cells with DMSO only, and the positive control wells were cells with […] inhibitor.
Following 24-hour incubation with the compounds plate and Nano-Glo® HiBiT Lytic reagents were equilibrated to room temperature. 20 μL of HiBiT Lytic reagent were added to each well. The assay plate was incubated on digital microplate shaker (350 rpm) for 20 min followed by centrifugation at 500 g for 1 min. Luminescence was recorded using Envision (Perkin-Elmer) using aperture 384-L1 with 0.1 s integration time.
HiBiT signal are used to calculate the % degradation at given compound concentration using the following formula:
% Degradation=(1−(Sample HiBiT signal−Ave Min signal)/(Ave Max signal−Ave Min signal))*100%
For DC50 calculation, the data with the hook effect were removed first and DC50S was reported using a 4-parameter fit of dose response curve using GraphPad in those cases where maximum % degradation was >50% and Minimal % degradation was <50%. The decrease in DC50 reflects that the exemplary compound led to a higher level of degradation of KRasG12D than another exemplary compound at specific timepoint of treatment of cancer cell line. […]

KRAS G12D = KRAS G12D (Homo sapiens, UniProt P01116, G12D); experiment: In-vitro RAS-RAF binding assay (RRB), HTRF/FRET; assay type: biochemical; set-up: Biotinylated KRAS protein amino acids 1-169 (produced at Erasca); made in house; conditions: Table 2, average of multiple runs of each compound; read-out: Inhibition of RAS-RAF Binding (in-vitro) KRAS (G12D) IC50
Chain of KRAS G12D (P01116 1-169 isoform P01116-2 G12D): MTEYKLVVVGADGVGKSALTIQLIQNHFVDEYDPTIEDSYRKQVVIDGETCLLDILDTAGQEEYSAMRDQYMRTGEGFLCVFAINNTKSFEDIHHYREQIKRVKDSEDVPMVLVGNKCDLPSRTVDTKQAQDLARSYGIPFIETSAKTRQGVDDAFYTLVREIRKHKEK
Outline: as §1

SMILES	IC50 (KRAS (WT))	DC50 [1]	IC50 (KRAS G12D)
CC(C)[C@H](C(=O)N1C[C@H](O)C[C@H]1C(=O)N[C@@H](C)c1ccc(-c2c(F)cc(F)cc2F)cc1)c1cc(N2CC3(CCN(CCOc4nc(N5CC6CCC(C5)N6)c5cc(Cl)c(-c6ccc(F)c7sc(N)c(C#N)c67)c(F)c5n4)CC3)C2)no1 [Example 67, (2S,4R)-1-((2S)-2-(3-(7-(2-((7-(2-amino-3-cyano-7-fluorobenzo[b]thiophen-4-yl)-4-(3,8-diazabicyclo[3.2.1]octan-3-yl)-6-chloro-8-fluoroquinazolin-2-yl)oxy)ethyl)-2,7-diazaspiro[3.5]nonan-2-yl)isoxazol-5-yl)-3-methylbutanoyl)-4-hydroxy-N-((S)-1-(2′,4′,6′-trifluoro-[1,1′-biphenyl]-4-yl)ethyl)pyrrolidine-2-carboxamide]	5 µM	≥ 10 µM	0.02 µM
C#Cc1c(F)ccc2cc(O)cc(-c3ncc4c(N5CC6CCC(C5)N6)nc(OCCN5CCC6(C5)CN(c5cc([C@H](C(=O)N7C[C@H](O)C[C@H]7C(=O)N[C@@H](C)c7ccc(-c8c(F)cccc8F)cc7)C(C)C)on5)C6)nc4c3F)c12 [Example 101, (2S,4R)-1-((2R)-2-(3-(6-(2-((4-(3,8-diazabicyclo[3.2.1]octan-3-yl)-7-(8-ethynyl-7-fluoro-3-hydroxynaphthalen-1-yl)-8-fluoropyrido[4,3-d]pyrimidin-2-yl)oxy)ethyl)-2,6-diazaspiro[3.4]octan-2-yl)isoxazol-5-yl)-3-methylbutanoyl)-N—((S)-1-(2′,6′-difluoro-[1,1′-biphenyl]-4-yl)ethyl)-4-hydroxypyrrolidine-2-carboxamide]	1.79 µM	0.707 µM	0.013 µM
C[C@H](NC(=O)[C@@H]1C[C@@H](O)CN1C(=O)[C@@H](NC(=O)CCOCCCN1CCC[C@H]1COc1nc(N2CC3CCC(C2)N3)c2cc(Cl)c(-c3ccc(F)c4sc(N)c(C#N)c34)c(F)c2n1)C(C)(C)C)c1ccc(-c2ccccc2Cl)cc1 [Example 96, (2S,4R)-1-((2S)-2-(3-(3-((2S)-2-((((7R)-7-(2-amino-3-cyano-7-fluorobenzo[b]thiophen-4-yl)-4-(3,8-diazabicyclo[3.2.1]octan-3-yl)-6-chloro-8-fluoroquinazolin-2-yl)oxy)methyl)pyrrolidin-1-yl)propoxy)propanamido)-3,3-dimethylbutanoyl)-N—((S)-1-(2′-chloro-[1,1′-biphenyl]-4-yl)ethyl)-4-hydroxypyrrolidine-2-carboxamide]	0.156 µM	0.075 µM	0.0092 µM
CC(C)[C@@H](C(=O)N1C[C@H](O)C[C@H]1C(=O)N[C@@H](C)c1ccc(-c2c(F)cc(F)cc2F)cc1)c1cc(N2CC3(CCN(CCOc4nc(N5CC6CCC(C5)N6)c5cc(Cl)c(-c6ccc(F)c7sc(N)c(C#N)c67)c(F)c5n4)CC3)C2)no1 [Example 68, (2S,4R)-1-((2R)-2-(3-(7-(2-((7-(2-amino-3-cyano-7-fluorobenzo[b]thiophen-4-yl)-4-(3,8-diazabicyclo[3.2.1]octan-3-yl)-6-chloro-8-fluoroquinazolin-2-yl)oxy)ethyl)-2,7-diazaspiro[3.5]nonan-2-yl)isoxazol-5-yl)-3-methylbutanoyl)-4-hydroxy-N-((S)-1-(2′,4′,6′-trifluoro-[1,1′-biphenyl]-4-yl)ethyl)pyrrolidine-2-carboxamide]	> 10 µM	1.28 µM	0.0193 µM
CC(C)[C@@H](C(=O)N1C[C@H](O)C[C@H]1C(=O)N[C@@H](C)c1ccc(-c2c(F)cccc2F)cc1)c1cc(OCC2CCN(CCOc3nc(N4CC5CCC(C4)N5)c4cc(Cl)c(-c5ccc(F)c6sc(N)c(C#N)c56)c(F)c4n3)CC2)no1 [Example 17, (2S,4R)-1-((2R)-2-(3-((1-(2-((7-(2-amino-3-cyano-7-fluorobenzo[b]thiophen-4-yl)-4-(3,8-diazabicyclo[3.2.1]octan-3-yl)-6-chloro-8-fluoroquinazolin-2-yl)oxy)ethyl)piperidin-4-yl)methoxy)isoxazol-5-yl)-3-methylbutanoyl)-N—((S)-1-(2′,6′-difluoro-[1,1′-biphenyl]-4-yl)ethyl)-4-hydroxypyrrolidine-2-carboxamide]	2.83 µM	0.244 µM	0.0156 µM
CC(C)[C@@H](C(=O)N1C[C@H](O)C[C@H]1C(=O)N[C@@H](C)c1ccc(-c2c(F)cc(F)cc2F)cc1)c1cc(OCC2(F)CCN(CCOc3nc(N4CC5CCC(C4)N5)c4cc(Cl)c(-c5ccc(F)c6sc(N)c(C#N)c56)c(F)c4n3)CC2)no1 [Example 69, (2S,4R)-1-((2R)-2-(3-((1-(2-((7-(2-amino-3-cyano-7-fluorobenzo[b]thiophen-4-yl)-4-(3,8-diazabicyclo[3.2.1]octan-3-yl)-6-chloro-8-fluoroquinazolin-2-yl)oxy)ethyl)-4-fluoropiperidin-4-yl)methoxy)isoxazol-5-yl)-3-methylbutanoyl)-4-hydroxy-N-((S)-1-(2′,4′,6′-trifluoro-[1,1′-biphenyl]-4-yl)ethyl)pyrrolidine-2-carboxamide]	> 10 µM	0.525 µM	0.0352 µM
C#Cc1c(F)ccc2cc(O)cc(-c3ncc4c(N5CC6CCC(C5)N6)nc(OCCN5CCC(COc6cc([C@H](C(=O)N7C[C@H](O)C[C@H]7C(=O)N[C@@H](C)c7ccc(-c8scnc8C)cc7)C(C)C)on6)CC5)nc4c3F)c12 [Example 60, (2S,4R)-1-((2R)-2-(3-((1-(2-((4-(3,8-diazabicyclo[3.2.1]octan-3-yl)-7-(8-ethynyl-7-fluoro-3-hydroxynaphthalen-1-yl)-8-fluoropyrido[4,3-d]pyrimidin-2-yl)oxy)ethyl)piperidin-4-yl)methoxy)isoxazol-5-yl)-3-methylbutanoyl)-4-hydroxy-N-((S)-1-(4-(4-methylthiazol-5-yl)phenyl)ethyl)pyrrolidine-2-carboxamide]	0.188 µM	0.108 µM	0.00955 µM
CC(C)[C@@H](C(=O)N1C[C@H](O)C[C@H]1C(=O)N[C@@H](C)c1ccc(-c2c(F)cccc2F)cc1)c1cc(OCC2(F)CCN(CCOc3nc(N4CC5CCC(C4)N5)c4cc(Cl)c(-c5ccc(F)c6sc(N)c(C#N)c56)c(F)c4n3)CC2)no1 [Example 73, (2S,4R)-1-((2R)-2-(3-((1-(2-((7-(2-amino-3-cyano-7-fluorobenzo[b]thiophen-4-yl)-4-(3,8-diazabicyclo[3.2.1]octan-3-yl)-6-chloro-8-fluoroquinazolin-2-yl)oxy)ethyl)-4-fluoropiperidin-4-yl)methoxy)isoxazol-5-yl)-3-methylbutanoyl)-N-((S)-1-(2′,6′-difluoro-[1,1′-biphenyl]-4-yl)ethyl)-4-hydroxypyrrolidine-2-carboxamide]	> 10 µM	0.349 µM	0.0476 µM
